Measured values from patent US12404283B2, “c-MYC mRNA translation modulators and uses thereof in the treatment of cancer” (Anima Biotech Inc., priority 2022, dated 2025).

Tested on: c-Myc
Assay: c-Myc immunofluorescence assay
Format: cell-based, human
Details: A549 cells, 24 hours treatment, anti-c-Myc immunofluorescence
Description: A549 human non-small cell lung carcinoma cells were treated for 24 hours with increasing compound concentration, cells were fixed and stained with a nuclei stain (DAPI) and anti-c-Myc fluorescent antibody. The c-Myc signal was quantified by image analysis, and data was exported and analyzed using TIBCO Spotfire® (TIBCO Corporation). Dose response curves were generated and fitted with logaristic regression to calculate potency (EC50 values). Potency values are presented in Table 2 for all compounds and are shown for selected compounds (FIG. 4).
A549 cells were grown in 384-wells plates (Perkin Elmer, Cat. 6057300) for 48 hours, treated with compounds and then fixed for 20 min in 4% paraformaldehyde. After that permeabilization was done using 0.1% Triton X-100 in PBS for 20 min. Primary anti-c-Myc antibody (Abcam, ab32072) staining was performed for 90 min at room temperature. Cells then were washed twice with PBS and incubated with secondary antibody (Abcam, ab150075) for 90 min at room temperature. Nuclei were stained with DAPI for 10 min and washed twice with PBS.
Cell images were taken with Operetta (Perkin Elmer, USA), a wide-field fluorescence microscope at 20× magnification. After acquisition, the images were transferred to Columbus software (Perkin-Elmer) for image analysis. In Columbus, cells were identified by their nucleus, using the “Find Nuceli” module and cytoplasm was detected based on the secondary antibody channel. Subsequently, the fluorescent signal was enumerated in the identified cell region. Then data was exported to a data analysis and visualization software, Tibco Spotfire, USA.

SMILES	Myc Efficacy (−LogEC50)
COc1cc(-c2cn3c(n2)sc2cc(C(=O)NCCCN4CCC(F)CC4)ccc23)c(F)cc1C1CCCN1 (stereo not shown) [compound 489, 2-(2-fluoro-5-methoxy-4-(pyrrolidin-2-yl)phenyl)-N-(3-(4-fluoropiperidin-1-yl)propyl)benzo[d]imidazo[2,1-b]thiazole-7-carboxamide]	++ (++ ≥5 and <6)
CCNC(=O)c1ccc(-c2cn3c(n2)sc2cc(C(=O)NCCCN(CC)CC)ccc23)cc1 [compound 282, N-(3-(diethylamino)propyl)-2-(4-(ethylcarbamoyl)phenyl) benzo[d]imidazo[2,1-b]thiazole-7-carboxamide]	+ (+ >3 and <5)
CCN(CC)CCCNC(=O)c1ccc2c(c1)sc1nc(-c3ccc(C(=O)NC)c(F)c3)cn12 [compound 291]	+ (+ >3 and <5)
CNC(=O)c1ccc(-c2cn3c(n2)sc2cc(C(=O)NCC[C@H](C)N)ccc23)cc1 [compound 200, (S)-N-(3-aminobutyl)-2-(4-(methylcarbamoyl)phenyl) benzo[d]imidazo[2,1-b]thiazole-7-carboxamide]	+ (+ >3 and <5)
CNC(=O)c1ccc(-c2cn3c(n2)sc2cc(C(=O)NCCN4CCCCC4C)ccc23)cc1 (stereo not shown) [compound 262, 2-(4-(methylcarbamoyl)phenyl) N-(2-(2-methylpiperidin-1-yl)ethyl)benzo[d]imidazo [2,1-b]thiazole-7-carboxamide]	+ (+ >3 and <5)
O=C(NCCCN1CCCCC1)c1ccc2c(c1)sc1nc(-c3ccc([C@H]4CCCN4)cc3)cn12 [compound 412, (R)-N-(3-(piperidin-1-yl)propyl)-2-(4-(pyrrolidin-2-yl)phenyl)benzo[d]imidazo [2,1-b]thiazole-7-carboxamide]	+++ (+++ ≥6)
O=C(NCCCN1CCC(F)CC1)c1ccc2c(c1)sc1nc(-c3ccc(C4CCNO4)cc3F)cn12 (stereo not shown) [Compound 543, 2-(2-fluoro-4-(isoxazolidin-5-yl)phenyl)-N-(3-(4-fluoropiperidin-1-yl)propyl)benzo[d]imidazo[2,1-b]thiazole-7-carboxamide]	+++ (+++ ≥6)
C#CCCC1(CCN2CC[C@@H](CNC(=O)c3ccc4c(c3)sc3nc(-c5ccc(C)cc5)cn34)C2)N=N1 [compound 325, (S)-N-((1-(2-(3-(but-3-yn-1-yl)-3H-diazirin-3-yl)ethyl)pyrrolidin-3-yl)methyl)-2-(p-tolyl)benzo[d]imidazo[2,1-b]thiazole-7-carboxamide]	++ (++ ≥5 and <6)
O=C(NCCCN1CCC(F)CC1)c1ccc2c(c1)sc1nc(-c3ccc(C4CCNCC4)cc3F)cn12 [Compound 508, 2-(2-fluoro-4-(piperidin-4-yl)phenyl)-N-(3-(4-fluoropiperidin-1-yl)propyl)benzo[d]imidazo[2,1-b]thiazole-7-carboxamide]	+++ (+++ ≥6)
CCN(CCCNC(=O)c1ccc2c(c1)sc1nc(-c3cccc(C)c3)cn12)CC(F)(F)F [compound 177, N-(3-(ethyl(2,2,2-trifluoroethyl)amino)propyl)-2-(m-tolyl)benzo[d]imidazo[2,1-b]thiazole-7-carboxamide]	+ (+ >3 and <5)
CNC(=O)c1ccc(-c2cn3c(n2)sc2cc(C(=O)NCC4(C)CC4)ccc23)cc1 [compound 261, 2-(4-(methylcarbamoyl)phenyl) N-((1-methylcyclopropyl)methyl) benzo[d]imidazo[2,1-b]thiazole-7-carboxamide]	− (− ≤3)
CNC(=O)c1ccc(-c2cn3c(n2)sc2cc(C(=O)NC[C@H]4CCCN(C)C4)ccc23)cc1 [compound 212, (R)-2-(4-(methylcarbamoyl)phenyl)-N-((1-methylpiperidin-3-yl)methyl)benzo[d]imidazo [2,1-b]thiazole-7-carboxamide]	+ (+ >3 and <5)
CCNCCCNC(=O)c1ccc2c(c1)sc1nc(-c3ccc(C(=O)NC)cc3F)cn12 [compound 362, N-(3-(ethylamino)propyl)-2-(2-fluoro-4-(methylcarbamoyl)phenyl) benzo[d]limidazo[2,1-b]thiazole-7-carboxamide]	++ (++ ≥5 and <6)
CN1CCC(NC(=O)c2ccc3c(c2)sc2nc(-c4ccc(C5COCCN5)cc4F)cn23)CC1 (stereo not shown) [Compound 517, 2-(2-fluoro-4-(morpholin-3-yl)phenyl)-N-(1-methylpiperidin-4-yl)benzo[d]imidazo[2,1-b]thiazole-7-carboxamide]	+++ (+++ ≥6)
CN1CC(NC(=O)c2ccc3c(c2)sc2nc(-c4ccc(C5CCCN5)cc4F)cn23)C1 (stereo not shown) [Compound 506, 2-(2-fluoro-4-(pyrrolidin-2-yl)phenyl)-N-(1-methylazetidin-3-yl)benzo[d]imidazo[2,1-b]thiazole-7-carboxamide]	+++ (+++ ≥6)
Cc1cccc(-c2cn3c(n2)sc2cc(C(=O)NCCC(=O)N4CCCC4)ccc23)c1 [compound 159, N-(3-oxo-3-(pyrrolidin-1-yl)propyl)-2-(m-tolyl)benzo[d]imidazo[2,1-b]thiazole-7-carboxamide]	+ (+ >3 and <5)
CCN(CC)CCCC(=O)Nc1ccc2c(c1)sc1nc(-c3cccc(C)c3)cn12 [compound 266, 4-(diethylamino)-N-(2-(m-tolyl)benzo[d]imidazo[2,1-b]thiazol-7-yl)butanamide]	+ (+ >3 and <5)
CN1CCC(NC(=O)c2ccc3c(c2)sc2nc(-c4ccc(C5(F)CCNCC5)cc4F)cn23)CC1 [Compound 536, 2-(2-fluoro-4-(4-fluoropiperidin-4-yl)phenyl)-N-(1-methylpiperidin-4-yl)benzo[d]imidazo[2,1-b]thiazole-7-carboxamide]	+++ (+++ ≥6)
CCN(CC)CCCNC(=O)c1ccc2c(c1)sc1nc(-c3ccc(CN)cc3)cn12 [compound 163, 2-(4-(aminomethyl)phenyl)-N-(3-(diethylamino)propyl)benzo [d]imidazo[2,1-b]thiazole-7-carboxamide]	+++ (+++ ≥6)
CCN(CC)CCCNC(=O)c1ccc2c(c1)sc1nc(-c3ccc(CN4CCCC4)cc3)cn12 [compound 289, N-(3-(diethylamino)propyl)-2-(4-(pyrrolidin-1-ylmethyl)phenyl)benzo[d] imidazo[2,1-b]thiazole-7-carboxamide]	+++ (+++ ≥6)
CN1CCC(NC(=O)c2ccc3c(c2)sc2nc(-c4ccc(C5CCNCC5)cc4F)cn23)CC1 [compound 527, 2-(2-fluoro-4-(piperidin-4-yl)phenyl)-N-(1-methylpiperidin-4-yl)benzo[d]imidazo[2,1-b]thiazole-7-carboxamide]	+++ (+++ ≥6)
O=C(NCCCN1CCC(F)CC1)c1ccc2c(c1)sc1nc(-c3ccc(C4CCCCN4)cc3F)cn12 (stereo not shown) [Compound 480, 2-(2-fluoro-4-(piperidin-2-yl)phenyl)-N-(3-(4-fluoropiperidin-1-yl)propyl)benzo[d]imidazo[2,1-b]thiazole-7-carboxamide]	+++ (+++ ≥6)
